Data from patent publication US4780412A, “Fibrinolytic enzymes produced from established non-cancerous cell lines” (priority 1982, dated 1988).
Counter-ions that a name gives are not always drawn. Square brackets hold non-standard residues; d marks the D form. Peptide text beside a SMILES is read from it. * marks the point of attachment. pNA = O=[N+]([O-])c1ccc(N*)cc1; Bz = O=C(c1ccccc1)*

How the values were obtained:
[1] = molecular target: T1, GPK derived enzyme (from cell line GPK, CNCMI-222) (Cavia porcellus, UniProt H0W0Z7); experiment: Inhibition of GPK-derived enzyme activity by 2-mercaptoethanol (fibrin plate, fibrin clot lysis time); type: biochemical; details: 2-mercaptoethanol at 10 mM or above, incubated 15 min at 37° C., pH 7.8; residual activity on plasminogen containing fibrin plate and by clot lysis time
T1 construct: residual activity on plasminogen-containing fibrin plate
Experimental: Various dilutions of the stock solution of 2-mercaptoethanol were prepared in 0.05M sodium diethylbarbiturate buffer, pH 7.8 containing 0.01% Tween 80. GPK derived enzyme (25 μg/ml) was mixed with an equal volume of diluted 2-mercaptoethanol solution and the mixture incubated at 37° C. Control sample contained enzyme with an equal volume of buffer. After 15 min, 50 μl aliquot of the mixture was applied to plasminogen containing fibrin plate to assess the residual enzyme activity. The enzyme activity was also quantitated by fibrin clot lysis time method.

Thrombin = details: values quoted in literature; cited from earlier work
[2] = molecular target: Melanoma (malignant melanoma plasminogen activator, HEPA) (Homo sapiens, UniProt P00750); details: values quoted in literature; cited from earlier work
[3] = molecular target: T2, GPK derived enzyme, partially purified (fibrinolytic enzyme / plasminogen activator from cell line GPK, CNCMI-222) (Cavia porcellus, UniProt H0W0Z7); experiment: Amidolytic activity on chromogenic substrates (release of p-nitroaniline at 405 nm); type: biochemical
T2 construct: zinc chelate agarose, partially purified from culture supernatant
Experimental: The amidolytic activity of the GPK derived enzyme was determined using various chromogenic substrates. […] Z

Urokinase = Urokinase (Homo sapiens, UniProt P00749); details: values quoted in literature; cited from earlier work
Plasmin = details: values quoted in literature; cited from earlier work

T2 sequence (H0W0Z7 33-559): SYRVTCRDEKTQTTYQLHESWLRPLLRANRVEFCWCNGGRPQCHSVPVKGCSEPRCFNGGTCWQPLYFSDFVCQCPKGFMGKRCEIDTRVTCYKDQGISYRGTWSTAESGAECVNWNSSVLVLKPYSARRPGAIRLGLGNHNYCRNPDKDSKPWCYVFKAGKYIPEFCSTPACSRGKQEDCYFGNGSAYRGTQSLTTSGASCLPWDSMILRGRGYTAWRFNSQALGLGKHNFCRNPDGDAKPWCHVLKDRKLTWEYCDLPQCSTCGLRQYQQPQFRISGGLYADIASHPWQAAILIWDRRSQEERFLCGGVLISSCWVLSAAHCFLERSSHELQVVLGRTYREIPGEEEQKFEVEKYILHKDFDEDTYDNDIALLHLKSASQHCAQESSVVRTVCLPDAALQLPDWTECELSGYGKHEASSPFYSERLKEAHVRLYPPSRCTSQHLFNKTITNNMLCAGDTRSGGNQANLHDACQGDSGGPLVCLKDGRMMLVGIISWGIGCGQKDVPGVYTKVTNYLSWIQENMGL
Melanoma (malignant melanoma plasminogen activator, HEPA), sequence (P00750 36-562): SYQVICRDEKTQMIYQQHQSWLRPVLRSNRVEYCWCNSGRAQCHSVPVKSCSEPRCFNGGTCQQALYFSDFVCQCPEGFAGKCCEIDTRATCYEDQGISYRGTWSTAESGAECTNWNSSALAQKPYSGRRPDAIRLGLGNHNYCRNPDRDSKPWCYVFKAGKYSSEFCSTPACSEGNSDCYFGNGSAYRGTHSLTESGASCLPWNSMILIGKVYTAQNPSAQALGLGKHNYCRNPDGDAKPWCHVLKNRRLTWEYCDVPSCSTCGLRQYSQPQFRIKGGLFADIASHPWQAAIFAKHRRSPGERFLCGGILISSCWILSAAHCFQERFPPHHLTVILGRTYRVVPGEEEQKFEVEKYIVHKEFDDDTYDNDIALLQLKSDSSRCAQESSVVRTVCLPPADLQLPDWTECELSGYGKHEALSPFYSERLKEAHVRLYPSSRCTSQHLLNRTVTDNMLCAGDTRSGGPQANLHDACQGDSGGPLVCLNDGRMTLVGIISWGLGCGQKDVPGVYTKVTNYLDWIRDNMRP
T1 sequence (H0W0Z7 33-559): as the sequence (H0W0Z7 33-559) above

Structure (SMILES)	Km (Thrombin)	Vmax (Thrombin)	Km (Urokinase)	Vmax (Urokinase)	Km (Plasmin)	Vmax (Plasmin)	further results
OCCS [2-mercaptoethanol]							proportion of the enzyme activity inhibited [1]: > 80%
CC(C)[C@H](NC(=O)[C@H](Cc1ccccc1)NC(=O)c1ccccc1)C(=O)N[C@@H](CCCNC(=N)N)C(=O)Nc1ccc([N+](=O)[O-])cc1 [Benzoyl-Phe--Val--Arg--pNa.HCl] (Bz-Phe-Val-Arg-pNA)	110 µM	0.036 M/min/NIH.U					
CC(C)[C@H](NC(=O)c1ccccc1)C(=O)NCC(=O)N[C@@H](CCCNC(=N)N)C(=O)Nc1ccc([N+](=O)[O-])cc1 [Benzoyl-Val--Gly--Arg--pNA.HCl] (Bz-Val-Gly-Arg-pNA)							Km [2]: 1 mM; Vmax [2]: 0.53 M/min/IU; Vmax ([3]; pH 9.0 (line above), ionic strength I 0.0035, substrate concentration by extinction): 1.4 M/min/M enzyme; Vmax ([3]; pH 9.0, ionic strength I 0.05, 0.05M Tris-HCl, 37° C.): 1.1 M/min/M enzyme
N=C(N)NCCC[C@H](NC(=O)[C@H](CCC(=O)O)NC(=O)[C@@H](N)CCC(=O)O)C(=O)Nc1ccc([N+](=O)[O-])cc1 [Glu--Glu--Arg--pNA.HCl] (H-Glu-Glu-Arg-pNA)			90 µM	3.1 × 10^-4 M/min/PLOUG.U			
CC[C@@H](C)[C@@H](N)C(=O)N1CCC[C@H]1C(=O)N[C@@H](CCCNC(=N)N)C(=O)Nc1ccc([N+](=O)[O-])cc1 [H--D--Ile--Pro--Arg--pNA.2HCl] (H-[dI]-Pro-Arg-pNA)	3 µM	0.1 M/min/U	200 µM	2 × 10^-4 M/min/U	9 mM	5 m/min/U	
CC(C)C[C@H](NC(=O)[C@H](N)C(C)C)C(=O)N[C@@H](CCCCN)C(=O)Nc1ccc([N+](=O)[O-])cc1 [H--D--Val--Leu--Lys--pNA.2HCl] (H-[dV]-Leu-Lys-pNA)					0.3 mM	0.5 M/min/CU	Vmax ([3]; pH 7.4, ionic strength I 0.006, 0.05M Tris-HCl, 37° C.): 27 M/min/M enzyme; Vmax ([3]; pH 7.4, ionic strength I 0.15, 0.05M Tris-HCl, 37° C.): 14.7 M/min/M enzyme; Vmax ([3]; pH 9.0, ionic strength I 0.15, 0.05M Tris-HCl, 37° C.): 4.08 M/min/M enzyme
